How the values were obtained:
Assay type in all cases: cell-based
[1] = test system: Axin1; assay: Western blot of Axin1 in human ESCs; conditions: human ESCs treated 24 h
Experimental: (A) TOPFlash™ assay in H9 human ESCs subjected to the indicated treatments for 24 h. Data represent mean±s.d. of three biological replicates. (B) Representative phase contrast and alkaline phosphatase (AP) staining images of H9 human ESCs cultured in the indicated conditions for 3 passages. (C) Phase contrast images of H9 human ESCs cultured in CHIR/XAV or CHIR/IWR-1 for 11 passages. (D) Colony forming efficiency assay of H9 human ESCs cultured in FGF2 or CHIR/IWR-1 conditions. Data represent mean±s.d. of three biological replicates. Right panel: a representative image showing AP staining of colonies formed from H9 human ESCs cultured in either FGF2 or CHIR/IWR-1 condition. (E) Human ESCs cultured in CHIR/IWR-1 for 11 passages were immunostained with the indicated antibodies. (F) Embryoid bodies (EBs) were generated from H9 human ESCs cultured in CHIR/IWR-1 for 11 passages. The outgrowths of EBs were immunostained with the indicated antibodies. (G) H&E staining of teratomas generated from H9 ESCs cultured in CHIR/IWR-1 for 20 passages. (H) Western blot analysis of Axin1 and Axin2 expression in HES3 human ESCs treated with the indicated cytokines/inhibitors for 24 h. (I) Immunofluorescence images of H9 human ESCs (passage 5 in CHIR) overexpressing Flag-tagged Axin2. […]

[2] = test system: Axin2; assay: Western blot of Axin2 in human ESCs; conditions: human ESCs treated 24 h
[3] = test system: β-catenin; assay: Western blot of nuclear β-catenin in mouse EpiSCs; conditions: 3 μM CHIR 12 h
Experimental: (A) Western blot analysis of cytoplasmic, nuclear and total β-catenin levels in CD1 mouse EpiSCs overexpressing Flag-tagged Axin1 or Axin2. Cells were either untreated or treated with 3 μM CHIR for 12 h. (B) Immunostaining of CD1 mouse EpiSCs overexpressing Flag-tagged Axin2 (C) Co-IP of Flag or β-catenin in CD1 mouse EpiSCs overexpressing empty vector or Flag-tagged Axin2. Cells were treated with 3 μM CHIR for 12 h (D) Immunostaining of ΔNβ-catenin-ERT2-overexpressing CD1 mouse EpiSCs before and after treatment with 1 μM 4-OHT. (E). Western blot analysis of cytoplasmic and nuclear ΔNβ-catenin-ERT2 levels after treatment with 1 μM 4-OHT for 24 h. (F). Phase contrast image of ΔNβ-catenin-ERT2-EpiSCs after 25 passages in basal medium only. (G) qRT-PCR analysis of Oct4, Nanog and Fgf5 mRNA levels in ΔNβ-catenin-ERT2-EpiSCs maintained in basal medium or basal medium plus FGF2/activin for 11 passages. Data represent mean±s.d. of three biological replicates. (H) Phase contrast image of ΔNβ-catenin-ERT2-EpiSCs after treatment with 1 μM 4-OHT for 24 h. […]
Next, we investigated how β-catenin mediates EpiSC self-renewal. […] To determine whether nuclear translocation of β-catenin is affected by Axin, we analyzed β-catenin protein levels in whole-cell, cytoplasmic and nuclear fractions before and after CHIR treatment. […] In Axin2-EpiSCs, Axin2 expression was mainly detected in the cytoplasm (FIG. 6B). […]

Cc1c[nH]c(-c2cnc(NCCNc3ccc(C#N)cn3)nc2-c2ccc(Cl)cc2Cl)n1 [CHIR99021, 6-((2-((4-(2,4-Dichlorophenyl)-5-(4-methyl-1H-imidazol-2-yl)pyrimidin-2-yl)amino)ethyl)amino)nicotinonitrile]
amount of Axin1 protein [1]: not Axin1 | amount of Axin2 protein [2]: induced the expression of Axin2 | nuclear β-catenin protein level ([3]; Axin2-EpiSCs): barely detectable | nuclear β-catenin protein level ([3]; vector-EpiSCs and Axin1-EpiSCs): dramatically increased
